In BindingDB's records for doi:10.1016/j.ejmech.2017.05.035 (Universidade Estadual De Feira De Santana, 2017):

Experiment: Antagonist activity at Adenosine receptor subtype 2B in human RBC assessed as change in erythrocyte morphology incubated for 3 hrs with occasional gentle stirring for every 30 min measured for every 12 hrs by microscopic analysis
Compound O=C(CN1CCOC(Cn2cncn2)C1)Nc1cccnc1 (stereo not drawn) has an EC50 of 17 nM.
Compound CCCn1c(=O)n(C)c(=O)c2[nH]c(-c3ccc(O[C@@H](C)C(=O)N4CCN(c5nc6ccc(Cl)cc6s5)CC4)cc3)cc21 has a Ki of 1 nM.
CC(OC(=O)c1nccnc1N)C(=O)NCc1ccc2c(c1)OCO2 (stereo not drawn) gave an EC50 of 47 nM.
With Cc1cc(NC(=O)CNc2ccc3c(c2)OC(F)(F)O3)on1 the EC50 was 35 nM.
With Cc1ccc(N2CCN(C(=O)[C@H](C)Oc3ccc(-c4cc5c([nH]4)c(=O)n(C)c(=O)n5C)cc3)CC2)cc1 the Ki was 1.8 nM.
In the case of CCCc1cc(O)nc(SC(C)C(=O)Nc2cc(C)no2)n1 (stereo not drawn), the EC50 is reported as 23 nM.
C[C@H](Oc1ccc(-c2cc3c([nH]2)c(=O)n(C)c(=O)n3C)cc1)C(=O)Nc1ccc(Br)cc1 showed a Ki of 1.3 nM.
CC(C)c1noc(OCC(=O)NCc2ccc3c(c2)OCO3)n1 gave an EC50 of 35 nM.
